Data on one molecule can be found in patent US20160263130A1, “PHARMACEUTICAL COMPOSITION FOR PREVENTING OR TREATING LIVER DISEASES, CONTAINING PLASMALOGEN PRECURSOR, PLASMALOGEN OR PLASMALOGEN ANALOG AS EFFECTIVE COMPONENT” (UNIVERSITY OF ULSAN FOUNDATION FOR INDUSTRY COOPERATION, priority 2013, published 2016).

Assay type in all cases: in vivo, C57/BL6 male mice
Test [1] relates to mice that were allowed to take high fat diet (HFD). Kind of test: High fat diet (HFD) hepatic steatosis animal model. Conditions: HFD mixed with 200 mg/kg/day (AG-200), 12 weeks, FIG. 6. From the text: Although a MCDD animal model is a model that represents nonalcoholic steatohepatitis occurrence, the MCDD animal model cannot represent a risk factor that accompanies metabolic syndrome. In order to overcome such limitation, liver tissues of mice that were allowed to take high fat diet (HFD) as a general animal model with respect to hepatic steatosis were used for the comparison.
The animal model only had simple hepatic steatosis without inflammation unlike the MCDD group.
Alkoxy glycerol, as a plasmalogen precursor, was added to the HFD feed that induces obesity and non-alcoholic hepatic steatosis, and the feed was administrated to the animal model, and the change was confirmed.
First, the control group (CON) was prepared by allowing 7-week-old C57/BL6 male mice to take a general feed including 7% of fat, 18% of protein, and 75% of carbohydrate, and the HFD group was prepared by allowing 7-week-old C57/BL6 male mice to freely take a HFD feed including 60% of fat, 18% of protein, and 22% of carbohydrate.
Also, the AG group (AG-200) was allowed to take the HFD mixed with 200 mg/kg/day of alkoxy glycerol. The experimental groups were allowed to take the corresponding feeds for the total of 12 weeks, and liver histological changes in the livers were confirmed in the same manner in Example 4, and the plasma ALT levels were confirmed in the same manner as in Example 1.

For test [2], the system named is mice treated with methionine-choline deficient diet (MCDD). As to the kind of experiment: Plasma ALT measurement in MCD diet steatohepatitis mice. Conditions: MCD diet together with 100 mg/kg/day, 6 weeks, vs MCDD group, FIG. 1. The method, then: (§1) A methionine-choline deficient (MCD) feed to induce steatohepatitis was purchased from Dyets (Bethlehem, Pa., USA). Alkoxy glycerol (batyl alcohol), as a plasmalogen precursor, was purchased from Sigma (St Louis, Mo., USA).
(§2) 2% BSA was prepared in a DMEM:F12 medium, and plasmalogen precursor alkoxy glycerol dissolved in ethanol was added thereto After incubation at 70° C. for 20 minutes, the mixture was inoculated in a manner of observing crystal disappearance. 7-week-old C57/BL6 male mice were brought in to an experimental animal room, stabilized for 7 days, and then separated into a general feed group, as a control group, an MCD diet group (an MCDD group), and a group taken a mixture of MCD diet and 100 mg/kg/day of plasmalogen precursor alkoxy glycerol (an AG group), where each of the groups had six mice. The test feeds were taken for the total of 6 weeks, and the mice were allowed to only take water for the following 12 hours. Then, blood samples were obtained from the mice, and liver tissues were harvested from each of the mice. […]
Blood samples were obtained from venae cavae of the experimental animals, the plasma was separated from the blood samples by using a centrifuge (at 300 rpm for 15 minutes), and alanine aminotransferase (ALT) of the plasma was measured by using a kit of Labs Biotechnology (London, Canada). […]

Test [3] deals with tumor necrosis factor (TNF-α) and monocyte chemotactic protein-1 (MCP-1) gene expression. Kind of test: Inflammatory cytokine gene expression in liver tissue by real-time PCR, MCD diet mice. As to conditions: MCD diet with 100 mg/kg/day, 6 weeks, FIG. 3. On the procedure:
as §1
(§3) 2% BSA was prepared in a DMEM:F12 medium, and plasmalogen precursor alkoxy glycerol dissolved in ethanol was added thereto After incubation at 70° C. for 20 minutes, the mixture was inoculated in a manner of observing crystal disappearance. 7-week-old C57/BL6 male mice were brought in to an experimental animal room, stabilized for 7 days, and then separated into a general feed group, as a control group, an MCD diet group (an MCDD group), and a group taken a mixture of MCD diet and 100 mg/kg/day of plasmalogen precursor alkoxy glycerol (an AG group), where each of the groups had six mice. The test feeds were taken for the total of 6 weeks, and the mice were allowed to only take water for the following 12 hours. Then, blood samples were obtained from the mice, and liver tissues were harvested from each of the mice. The harvested liver tissues were instantly rapid-frozen in dry ice and stored with plasma in a freezer at −70° C.
In order to confirm change in an inflammation degree of liver tissues, gene expression of a tumor necrosis factor (TNF-α) and monocyte chemotactic protein-1 (MCP-1), which are typical inflammatory cytokines, were confirmed by real-time PCR.
For orientation: Real-time PCR tracks product formation cycle by cycle.

Test [4] concerns mice treated with methionine-choline deficient diet (MCDD). Kind of test: Neutral fats (triglyceride) in liver tissue of MCD diet mice. Conditions: MCD diet together with 100 mg/kg/day, 6 weeks, FIG. 2. On the procedure:
as §1, §2
Neutral fats in the liver tissue was measured by using a triglyceride (GPO-Trinder) kit purchased from Sigma. […] Then, a triglyceride reagent A was added thereto, allowed to react at room temperature for 5 minutes, and the measurement was performed by using an Emax precision micro plate reader (Molecular Devices, Sunnyvale, Calif.) at 540 nm.

Test [5] shares this test system. As to the kind of experiment: Liver histological observation (H&E, trichrome C), MCD diet mice. Conditions: FIG. 4. On the procedure: as §1
as §3, with “−70° C. […]” for “−70° C.”
The segment was died with hematoxylin-eosin (H&E) and trichrome C, and examined and analyzed by using an optical microscope.

Molecules are shown by their SMILES.

On to `CCCCCCCCCCCCCCCCCCOCC(O)CO` (centres unmarked) [alkoxy glycerol, batyl alcohol], for which, in test [1], the “hepatic steatosis occurrence (liver histology)” value is listed as “significant improvement”, the “lipid content in the liver tissues” value is given as “significant improvement” and the “plasma ALT level” value is reported as “remarkable reduction”. For the same molecule, the “change in plasma ALT” value in test [2] is “significantly improvement”. For the same molecule, in test [3], the “expression of inflammatory cytokine genes (TNF-α, MCP-1) in liver tissue” value is listed as “suppressed expression of inflammatory cytokine genes”. For the same molecule, the “change in amount of neutral fats of liver tissues” value in test [4] was “significantly improvement”. In addition, in test [5] (MCD diet with 100 mg/kg/day, 6 weeks), the “steatohepatitis, H&E and trichrome C histology” value is reported as “relieved to the similar level with that of the control group”. For the same molecule, in test [5] (MCDD together with alkoxy glycerol), the liver fibrosis entry is “significant improvement”.
